Experimental data reported in patent publication US5798387A, “Amino acid derivatives” (Zaidan Hojin Biseibutsu Kagaku Kenkyu Kai, priority 1992, dated 1998).
Where a SMILES comes first, the peptide text is derived from it. [ ]: non-standard residue; d: D form. αMeS = C[C](N)(CO)C(=O)O; hSer = N[CH](CCO)C(=O)O

What was measured:
T cells = experiment: T cell proliferation (Test 1), thymidine uptake of Concanavalin A-treated T cells; assay type: cell-based, rat (female Fisher 344); conditions: Rattus norvegicus, 72 h, 3 days, untreated cells = 100, read-out: Rate of stimulating proliferation of T cells; for activity at 0.1 µg/mL: concentration of compound 0.1 μg/ml; for activity at 1 µg/mL: concentration of compound 1 μg/ml; for activity at 10 µg/mL: concentration of compound 10 μg/ml
Text: Effects of the novel amino acid derivatives of the general formula (I) on the proliferation of T cells were investigated by the following procedure.
The spleens, which had been excised in sterility from female Fisher 344 rats (12-16 weeks old, purchased from CHARLES RIVER JAPAN, INC), were squeezed in RPMI 1640 medium (a product of NISSUI PHARMACEUTICAL CO., LTD.) supplemented with 10% of fetal bovine serum, followed by passage of the resulting cell suspension through a column containing nylon wool fibres, whereby a cell suspension containing an abundant amount of T cells was obtained. This cell suspension was diluted to a level of 1×10^6 cells/ml with addition of a medium of the same composition as above. The cell-containing medium so obtained was then added with 5 μg/ml of Concanavalin A (product of Pharmacia AB), followed by incubation at 37° C. for 4 hours. Four hours later, α-methylmannoside was added to the incubated medium to give a concentration of 20 mg/ml of α-methylmannoside. After stirring the medium, cells were separated and collected therefrom by centrifugation. The collected cells were suspended at a level of 3×10^6 cells/ml in a medium of the same composition as above, followed by placing the resulting cell suspension in 100 μl portions in a 96-well microplate.
Novel amino acid derivatives at various concentrations, which are shown in Table 4, were incorporated in an amount of 100 μl as the test compounds to the respective cell suspensions in the plate, followed by incubation at 37° C. for 3 days in an incubator under air atmosphere containing 5% of carbon dioxide. Meanwhile, eighteen hours before the completion of the incubation, a solution of 10μ Ci/ml of radioactively labeled thymidine (Thymidine "6-^3 H", a product of NEN Company) was added in an amount of 10 μl to the cell suspensions under incubation. The cells after the incubation were collected on a filter paper by means of a cell harvester, washed with water and radioactivity of the cells so treated was determined by a liquid scintillation counter. The determined values of the radioactivity of the cells as treated with the test compounds were evaluated on the assumption that the determined value of the radioactivity of the cells untreated, namely tested without addition of the test compound during the incubation of cells was amounting to 100. The so evaluated values are recorded and expressed as rates (%) for stimulating the T cell proliferation which show such extent that the proliferation of T cells is enhanced by the new amino acid derivative of this invention.

[1] = system: bone-marrow cells (hematopoietic stem cells; megakaryocytes); experiment: Formation of colonies of megakaryocytes from bone-marrow cells (Test 3); assay type: cell-based, mouse (male BALB/c); conditions: Mus musculus, Bone marrow cell, 168 h, 7 days, no addition = 100, read-out: Number of colonies of megakaryocytes; for activity at 5 µg/mL: concentration of test compound 5 μg/ml; for activity at 50 µg/mL: concentration of test compound 50 μg/ml
Protocol: The activity of some amino acid derivatives of the general formula (I) according to this invention which induces proliferation of hematopoietic stem cells was tested in the following manner. Thus, bone-marrow cells had been prepared from the femurs of male BALB/c mouse (6-7 weeks old), and then a suspension of the bone-marrow cells was overlayed on "Lympholite M" (product of Cefalane Company), followed by centrifugation under 1500 g for 20 minutes. A lymphocyte fraction was collected, washed three times with "alpha MEM medium" (product of Gibco Company), and then diluted and suspended in the same medium as above to give a lymphocyte concentration of 7×10^6 cells/ml.
[…] of the resulting cell suspension, 50 μl of a solution of a test compound in physiological saline, 50 μl of a culture supernatant of WEHI-3, 100 μl of phosphate-buffered physiological saline, 50 μl of a pre-deionized 10% bovine serum albumin solution, 50 μl of an L-asparagin solution (200 μg/ml), 50 μl of a calcium chloride solution (260 μg/ml) and 50 μl of bovine plasma containing sodium citrate were combined together. The liquid mixture so obtained was poured in portions of 50 μl/well on a slide glass ("Glass Ware", product of Flaw Laboratory Company). After coagulation of the mixture, the slide glass bearing the coagulated masses was immersed in 10% FBS-added alpha MEM medium, followed by incubation at 37° C. under 5% CO2 for 7 days.
After completion of the incubation, the cells on the slide glass were immobilized with a 25% glutaraldehyde solution. In accordance with the methods proposed by Nagasawa et al. ["Zoketsu Kan Saibo (Hematopoietic Stem Cells)" compiled by takahisa Shimamaro, page 128 (The Nishimura Shoten Co., Ltd.)], the immobilized cells were stained for acetylcholinesterase activity which is specific for mouse megakaryocytes, and also the cells were stained with Mayer hematoxylin. Each cell culture so stained was dried and then sealed with a sealing agent. Under a microscope of ×100 magnification, the number of megakaryocytic colonies (i.e., the number of cells stained in an orange color) per well was counted.

[2] = system: Ehrlich ascites carcinoma; experiment: Antitumor activity (Test 2), Ehrlich ascites carcinoma transplanted subcutaneously; assay type: in vivo, mouse (ICR); conditions: tumor weight on day 15 vs control
Protocol: The antitumor activity of some amino acid derivatives of the general formula (I) according to this invention was tested in the following manner. A suspension of Ehrlich ascites carcinoma cells was subcutaneously injected to one of the inguinal parts of each ICR mouse to transplant 4×10^6 cells/mouse. From the seventh day after the transplantation, a test compound was intraperitoneally injected daily for 7 days at a dose of 50, 5 or 0.5 mg/kg (4 mice per treated group of mice, but 8 mice per untreated control group of mice). On the fifteenth day after the transplantation, a solid cancer was cut out and weighed. A reduction in the weight of solid cancers of the mice in each treated group of mice which was evaluated in comparison with the control group is expressed as rate of inhibiting the tumor growth (%) in Table 5 below.

| SMILES | activity at 0.1 µg/mL (T cells) | activity at 1 µg/mL (T cells) | activity at 10 µg/mL (T cells) | activity at 5 µg/mL [1] | activity at 50 µg/mL [1] | Tumor growth inhibiting rate ([2]; 5 mg/kg i.p. daily for 7 days) | Tumor growth inhibiting rate ([2]; 50 mg/kg i.p. daily for 7 days) | Tumor growth inhibiting rate ([2]; 0.5 mg/kg i.p. daily for 7 days) |
| --- | --- | --- | --- | --- | --- | --- | --- | --- |
| CCC(C)CC(=O)NC(C)(CO)C(=O)O (stereo not drawn) [Compound 1] | 292% | 297% | 332% | 147% | – | – | – | – |
| CCC(C)CC(=O)NC(C)(CO)C(=O)OCc1ccccc1 (stereo not drawn) [Compound 2] | 208% | 190% | 275% | 122% | – | – | – | – |
| CC(O)CCC(=O)NC(C)(CO)C(=O)O (stereo not drawn) [Compound 3] | 123% | 100% | 101% | – | – | – | – | – |
| CCCCOC(=O)C(C)(CO)NC(=O)CCC(C)O (stereo not drawn) [Compound 4] | 133% | 135% | 100% | – | – | – | – | – |
| CC(O)CC(=O)NC(C)(CO)C(=O)O (stereo not drawn) [Compound 5] | 313% | 370% | 439% | – | 178% | – | – | – |
| CC(O)CC(=O)NC(C)(COCc1ccccc1)C(=O)OCc1ccccc1 (stereo not drawn) [Compound 6] | 142% | 171% | 169% | 126% | – | – | – | – |
| CC(C)C(O)C(=O)NC(C)(CO)C(=O)O (stereo not drawn) [Compound 7] | 240% | 222% | 323% | – | 166% | – | – | – |
| CC(C)C(O)C(=O)NC(C)(CO)C(=O)OCc1ccccc1 (stereo not drawn) [Compound 8] | 251% | 226% | 372% | 111% | – | – | – | – |
| CC(C)CC(NC(=O)C(O)C(C)C(C)O)C(=O)O (stereo not drawn) [Compound 9] | 175% | 157% | 196% | – | 145% | – | – | – |
| CC(C)CC(NC(=O)C(O)C(C)C(C)O)C(=O)OCc1ccccc1 (stereo not drawn) [Compound 10] | 231% | 201% | 251% | 138% | – | 31% | 58% | – |
| CC(O)C(C)C(O)C(=O)NC(CO)C(=O)O (stereo not drawn) [Compound 11] | 394% | 392% | 100% | 150% | – | – | – | – |
| CC(O)C(C)C(O)C(=O)NC(CO)C(=O)OCc1ccccc1 (stereo not drawn) [Compound 12] | 265% | 185% | 242% | 105% | – | – | – | 37% |
| CC(CO)(NC(=O)C(O)C(C)(C)CO)C(=O)O (stereo not drawn) [Compound 13] | 405% | 352% | 465% | 177% | – | – | – | – |
| COC(=O)C(C)(CO)NC(=O)C(O)C(C)(C)CO (stereo not drawn) [Compound 14] | 356% | 335% | 443% | 167% | – | – | – | – |
| CC(CO)(NC(=O)C(O)C(C)(C)CO)C(=O)OCc1ccccc1 (stereo not drawn) [Compound 15] | 350% | 349% | 442% | – | 135% | – | – | – |
| CC(C)C(O)C(C)C(O)C(=O)NC(C)(CO)C(=O)O (stereo not drawn) [Compound 16] | 200% | 239% | 201% | – | 143% | – | – | – |
| CC(C)C(O)C(C)C(O)C(=O)NC(C)(CO)C(=O)OCc1ccccc1 (stereo not drawn) [Compound 17] | 201% | 273% | 245% | 107% | – | – | – | – |
| COC(=O)C(CSC)NC(=O)C(O)C(C)C(C)O (stereo not drawn) [Compound 18] | 268% | 355% | 427% | 146% | – | – | – | – |
| CSCC(NC(=O)C(O)C(C)C(C)O)C(=O)OCc1ccccc1 (stereo not drawn) [Compound 19] | 289% | 310% | 251% | – | 156% | 12% | – | – |
| CC(O)C(C)C(O)C(=O)NC(CSCc1ccccc1)C(=O)OCc1ccccc1 (stereo not drawn) [Compound 20] | 153% | 227% | 261% | 129% | – | – | – | – |
| CC(NC(=O)C(O)C(C)C(C)O)C(=O)OCc1ccccc1 (stereo not drawn) [Compound 22] | – | – | – | 108% | – | – | – | – |
| CC(O)C(NC(=O)C(O)C(C)C(C)O)C(=O)O (stereo not drawn) [Compound 23] | – | – | – | 144% | – | – | – | – |
| CC(NC(=O)C(O)C(C)C(C)O)C(=O)O (stereo not drawn) [Compound 24] | – | – | – | 136% | – | – | – | – |
| CC(O)C(C)C(O)C(=O)NC(C)(C)C(=O)OCc1ccccc1 (stereo not drawn) [Compound 25] | – | – | – | – | 156% | – | – | – |
| CC(O)C(C)C(O)C(=O)NC(C)(C)C(=O)O (stereo not drawn) [Compound 26] | – | – | – | 136% | – | – | – | – |
| CC(CO)(NC(=O)C(N)CCO)C(=O)O (stereo not drawn) [Compound 27] (H-[hSer]-[αMeS]-OH; configuration not given here) | – | – | – | – | 143% | – | – | – |
| CC(CC(=O)OCc1ccccc1)NC(=O)C(O)C(C)C(C)O (stereo not drawn) [Compound 28] | – | – | – | 121% | – | – | – | – |
| CC(CC(=O)O)NC(=O)C(O)C(C)C(C)O (stereo not drawn) [Compound 29] | – | – | – | – | 121% | – | – | – |
